The results in this text go back to patent publication US9914722B2, “Compounds for treating spinal muscular atrophy” (PTC Therapeutics Inc., priority 2012, dated 2018).

In data set [1] the test system is full length SMN2 minigene mRNA containing SMN2 exon 7 (SMN2-A minigene). Briefly: SMN2 minigene mRNA splicing RT-qPCR assay in cultured cells. Format: cell-based, human. The note with it: Homo sapiens, HEK293-H; HEK293H cells stably transfected with SMN2-A minigene, 24 hours, 7-point concentration curve; concentration giving 1.5-fold SMN2 full length mRNA vs vehicle; read-out: EC1.5x for production of full length SMN2 mRNA. The protocol:
SMN2 Minigene mRNA Splicing RT-qPCR Assay in Cultured Cells
The reverse transcription-quantitative PCR-based (RT-qPCR) assay is used to quantify the level of the full length SMN2 minigene mRNA containing SMN2 exon 7 in a HEK293H cell line stably transfected with said minigene and treated with a test compound.
Protocol. HEK293H cells stably transfected with the SMN2-A minigene construct described above (10,000 cells/well) are seeded in 200 μL of cell culture medium (DMEM plus 10% FBS, with 200 μg/mL hygromycin) in 96-well flat-bottom plates and the plate is immediately swirled to ensure proper dispersal of cells, forming an even monolayer of cells. Cells are allowed to attach for at least 4-6 hours. Test compounds are serially diluted 3.16-fold in 100% DMSO to generate a 7-point concentration curve. A solution of test compound (1 μL, 200× in DMSO) is added to each cell-containing well and the plate is incubated for 24 hours in a cell culture incubator (37° C., 5% CO2, 100% relative humidity). Two replicates are prepared for each test compound concentration. The cells are then lysed in Cells-To-Ct lysis buffer and the lysate is stored at −80° C.
Primer SMN Forward A (SEQ ID NO. 1) hybridizes to a nucleotide sequence in exon 7 (nucleotide 22 to nucleotide 40), primer SMN Reverse A (SEQ ID NO. 2) hybridizes to a nucleotide sequence in the coding sequence of Firefly luciferase, SMN Probe A (SEQ ID NO. 3) hybridizes to a nucleotide sequence in exon 7 (nucleotide 50 to nucleotide 54) and exon 8 (nucleotide 1 to nucleotide 21). The combination of these three oligonucleotides detects only SMN1 or SMN2 minigenes (RT-qPCR) and will not detect endogenous SMN1 or SMN2 genes.
The SMN forward and reverse primers are used at final concentrations of 0.4 μM. The SMN probe is used at a final concentration of 0.15 μM. The GAPDH primers are used at final concentrations of 0.2 μM and the probe at 0.15 μM.
The SMN2-minigene GAPDH mix (15 μL total volume) is prepared by combining 7.5 μL of 2×RT-PCR buffer, 0.4 μL of 25×RT-PCR enzyme mix, 0.75 μL of 20×GAPDH primer-probe mix, 4.0075 μL of water, 2 μL of 10-fold diluted cell lysate, 0.06 μL of 100 μM SMN forward primer, 0.06 μL of 100 μM SMN reverse primer, and 0.225 μL of 100 μM SMN probe.
PCR is carried out at the following temperatures for the indicated time: Step 1: 48° C. (15 min); Step 2: 95° C. (10 min); Step 3: 95° C. (15 sec); Step 4: 60° C. (1 min); then repeat Steps 3 and 4 for a total of 40 cycles.
Each reaction mixture contains both SMN2-A minigene and GAPDH primers/probe sets (multiplex design), allowing simultaneous measurement of the levels of two transcripts.
Two SMN spliced products are generated from the SMN2 minigene. The first spliced product containing exon 7, corresponding to SMN2 full length mRNA, is referred to herein using the term “SMN2 minigene FL.” The second spliced product lacking exon 7 is referred to herein using the term “SMN2 minigene Δ7.”
The increase of SMN2 minigene FL mRNA relative to that in cells treated with vehicle control is determined from real-time PCR data using a modified ΔΔCt method (as described in Livak and Schmittgen, Methods, 2001, 25:402-8). The amplification efficiency (E) is calculated from the slope of the amplification curve for SMN2 minigene FL and GAPDH mRNA individually. The abundance of SMN2 minigene FL and GAPDH mRNA are then calculated as (1+E)^−Ct, where Ct is the threshold value for each amplicon. The abundance of SMN2 minigene FL is normalized to GAPDH abundance. The normalized SMN2 minigene FL abundance from test compound-treated samples is then divided by normalized SMN2 minigene FL abundance from vehicle-treated cells to determine the level of SMN2 FL mRNA relative to vehicle control. […]

A further data set has as its system Smn protein. Briefly: Smn protein assay (Smn HTRF) in cultured cells. Format: cell-based, human. Conditions: Homo sapiens, Fibroblast, GM03813 SMA Type 1 patient fibroblasts, 48 hours, HTRF; for maximal fold induction: 7-point concentration data, relative to vehicle, read-out: maximum fold (Fold) increase of Smn protein; for EC (1.5-fold): concentration producing 1.5 times Smn protein vs DMSO vehicle, read-out: EC1.5x for Smn protein expression. On the procedure: Smn Protein Assay in Cultured Cells
The Smn HTRF (homogeneous time resolved fluorescence) assay is used to quantify the level of Smn protein in SMA patient fibroblast cells treated with test compounds.
Protocol. Cells are thawed and cultured in DMEM-10% FBS for 72 hours. Cells are trypsinized, counted and re-suspended to a concentration of 25,000 cells/mL in DMEM-10% FBS. The cell suspension is plated at 5,000 cells per well in a 96 well microtiter plate and incubated for 3 to 5 hours. […] Test compounds are serially diluted 3.16-fold in 100% DMSO to generate a 7-point concentration curve. 1 μL of test compound solution is transferred to cell-containing wells and cells are incubated for 48 hours in a cell culture incubator (37° C., 5% CO2, 100% relateive humidity). Triplicate samples are set up for each test compound concentration. After 48 hours, the supernatant is removed from the wells and 25 μL of the RIPA lysis buffer, containing protease inhibitors, is added to the wells and incubated with shaking at room temperature for 1 hour. 25 μL of the diluent is added and then 35 μL of the resulting lysate is transferred to a 384-well plate, where each well contains 5 μL of the antibody solution (1:100 dilution of anti-SMN d2 and anti-SMN kryptate in SMN reconstitution buffer). The plate is centrifuged for 1 minute to bring the solution to the bottom of the wells, then incubated overnight at room temperature. Fluorescence for each well of the plate at 665 nm and 620 nm is measured on an EnVision multilabel plate reader (Perkin-Elmer).
The normalized fluorescence signal is calculated for each sample, Blank and vehicle control well by dividing the signal at 665 nm by the signal at 620 nm. Normalizing the signal accounts for possible fluorescence quenching due to the matrix effect of the lysate. The AF value (a measurement of Smn protein abundance as a percent value) for each sample well is calculated by subtracting the normalized average fluorescence for the Blank control wells from the normalized fluorescence for each sample well, then dividing this difference by the normalized average fluorescence for the Blank control wells and multiplying the resulting value by 100. The ΔF value for each sample well represents the Smn protein abundance from test compound-treated samples. The ΔF value for each sample well is divided by the ΔF value for the vehicle control wells to calculate the fold increase in Smn protein abundance relative to the vehicle control.
For compounds of Formula (I) or a form thereof disclosed herein, Table 9 provides the EC1.5x for Smn protein expression that was obtained from the 7-point concentration data generated for each test compound according to the procedure of Biological Example 7. The term “EC1.5x for Smn protein expression” is defined as that concentration of test compound that is effective in producing 1.5 times the amount of Smn protein in an SMA patient fibroblast cell compared to the amount produced from the DMSO vehicle control. An EC1.5x for Smn protein expression between >3 μM and ≦10 μM is indicated by one star (*), an EC1.5x between >1 μM and ≦3 μM is indicated by two stars (**), an EC1.5x between >0.3 μM and ≦1 μM is indicated by three stars (***) and an EC1.5x≦0.3 μM is indicated by four stars (****).
For compounds of Formula (I) or a form thereof disclosed herein, Table 10 provides the maximum fold (Fold) increase of Smn protein that was obtained from the 7-point concentration data generated for each test compound according to the procedure of Biological Example 7. A maximum fold increase ≦1.2 is indicated by one star (*), a fold increase between >1.2 and ≦1.35 is indicated by two stars (**), a fold increase between >1.35 and ≦1.5 is indicated by three stars (***), a fold increase between >1.5 and ≦1.65 is indicated by four stars (****) and a fold increase >1.65 is indicated by five stars (*****).
A general note: In TR-FRET formats the signal depends on donor and acceptor labels being close together.

Regarding `C[C@@H]1CN(c2ccc3oc(-c4ccccn4)cc(=O)c3c2)C[C@H](C)N1` [Cpd 13, 6-[(3R,5S)-3,5-dimethylpiperazin-1-yl]-2-(pyridin-2-yl)-4H-chromen-4-one], the melting point (usually the temperature, or range, at which the solid turns liquid) lay within 166 to 168 °C. Also, the EC (1.5-fold) in data set [1] is 1 to 3 µM. The maximal fold induction in the data set on Smn protein lay within 1.35 to 1.5.

With `O=c1cc(-c2ccccn2)oc2ccc(N3CCCNCC3)cc12` [Cpd 14, 6-(1,4-diazepan-1-yl)-2-(pyridin-2-yl)-4H-chromen-4-one], the melting point was in the range of 170 to 172 °C. For the same compound, the EC (1.5-fold) in data set [1] is 3 to 30 µM. Also, the maximal fold induction with Smn protein was ≤ 1.2.

Regarding `C[C@@H]1CN(c2ccc3oc(-c4ccccn4)cc(=O)c3c2)CCN1` [Cpd 15, 6-[(3R)-3-methylpiperazin-1-yl]-2-(pyridin-2-yl)-4H-chromen-4-one], the melting point lay within 140 to 142 °C. Further, in data set [1], the EC (1.5-fold) lay within 1 to 3 µM. Besides, in the data set with Smn protein, the maximal fold induction lay within 1.5 to 1.65 and the EC (1.5-fold) fell in the range of 3 to 10 µM.

In the case of `C[C@@H]1CN(c2ccc3oc(-c4cn5ccccc5n4)cc(=O)c3c2)CCN1` [Cpd 16, 2-(imidazo[1,2-a]pyridin-2-yl)-6-[(3R)-3-methylpiperazin-1-yl]-4H-chromen-4-one], the melting point was in the range of 210 to 215 °C. Moreover, the EC (1.5-fold) in data set [1] lay in the range of 1 to 3 µM. Also, in the data set with Smn protein, the maximal fold induction was > 1.65 and the EC (1.5-fold) was 1 to 3 µM.

As to `O=c1cc(-c2cn3ccccc3n2)oc2ccc(N3CCCNCC3)cc12` [Cpd 18, 6-(1,4-diazepan-1-yl)-2-(imidazo[1,2-a]pyridin-2-yl)-4H-chromen-4-one], the melting point lay within 198 to 200 °C. In data set [1], the EC (1.5-fold) is 3 to 30 µM. Further, in the data set with Smn protein, the maximal fold induction is > 1.65 and the EC (1.5-fold) lay in the range of 3 to 10 µM.

`CN1CCCN(c2ccc3oc(-c4cn5ccccc5n4)cc(=O)c3c2)CC1` [Cpd 19, 2-(imidazo[1,2-a]pyridin-2-yl)-6-(4-methyl-1,4-diazepan-1-yl)-4H-chromen-4-one] had a melting point of 188 to 190 °C. The EC (1.5-fold) in data set [1] was in the range of 3 to 30 µM. Also, in the data set on Smn protein, the maximal fold induction was > 1.65 and the EC (1.5-fold) is 1 to 3 µM.

On to `COc1ccc(-c2cc(=O)c3cc(N4CCNCC4)ccc3o2)cc1OC` [Cpd 20, 2-(3,4-dimethoxyphenyl)-6-(piperazin-1-yl)-4H-chromen-4-one], for which the melting point is 177 to 179 °C. In data set [1], the EC (1.5-fold) is ≤ 0.1 µM. Besides, in the data set with Smn protein, the maximal fold induction was > 1.65 and the EC (1.5-fold) was 0.3 to 1 µM.

In turn, `COc1ccc(-c2cc(=O)c3cc(N4CCN(C)CC4)ccc3o2)cc1OC` [Cpd 21, 2-(3,4-dimethoxyphenyl)-6-(4-methylpiperazin-1-yl)-4H-chromen-4-one] yielded a melting point of 184 to 186 °C. For the same compound, the EC (1.5-fold) in data set [1] was 0.3 to 1 µM. Also, in the data set with Smn protein, the maximal fold induction is > 1.65 and the EC (1.5-fold) was in the range of 1 to 3 µM.

`CCN1CCN(c2ccc3oc(-c4ccc(OC)c(OC)c4)cc(=O)c3c2)CC1` [Cpd 22, 2-(3,4-dimethoxyphenyl)-6-(4-ethylpiperazin-1-yl)-4H-chromen-4-one] registered a melting point of 188 to 190 °C. Also, in data set [1], the EC (1.5-fold) lay within 0.3 to 1 µM. For the same compound, in the data set with Smn protein, the maximal fold induction was > 1.65 and the EC (1.5-fold) was 1 to 3 µM.

Regarding `COc1ccc(-c2cc(=O)c3cc(N4CCN[C@H](C)C4)ccc3o2)cc1OC` [Cpd 23, 2-(3,4-dimethoxyphenyl)-6-[(3R)-3-methylpiperazin-1-yl]-4H-chromen-4-one], the melting point was in the range of 181 to 183 °C. For the same compound, the EC (1.5-fold) in data set [1] fell in the range of 0.1 to 0.3 µM. Further, in the data set with Smn protein, the maximal fold induction lay within 1.5 to 1.65 and the EC (1.5-fold) was 0.3 to 1 µM.

For the compound `COc1ccc(-c2cc(=O)c3cc(N4C[C@@H](C)N[C@@H](C)C4)ccc3o2)cc1OC` [Cpd 24, 2-(3,4-dimethoxyphenyl)-6-[(3R,5S)-3,5-dimethylpiperazin-1-yl]-4H-chromen-4-one], the melting point was in the range of 206 to 208 °C. Moreover, in data set [1], the EC (1.5-fold) fell in the range of 0.3 to 1 µM. In the data set with Smn protein, the maximal fold induction was > 1.65 and the EC (1.5-fold) was in the range of 1 to 3 µM.
